Laboratory results reported in patent US9944646B2, “Bicyclic azaheterocyclobenzylamines as PI3K inhibitors” (Incyte Corporation, priority 2012, dated 2018).

target: PI3Kδ (Homo sapiens (Human), UniProt O00329); experiment: PI3K Enzyme Assay (Example A2), [γ-33P]ATP filter plate; format: biochemical
Protocol: Example A2: PI3K Enzyme Assay
Lipid kinase substrate, phosphoinositol-4,5-bisphosphate (PIP2), are purchased from Echelon Biosciences (Salt Lake City, Utah). PI3K isoforms α, β, δ and γ are purchased from Millipore (Bedford, Mass.). ATP, MgCl2, DTT, EDTA, MOPS and CHAPS are purchased from Sigma-Aldrich (St. Louis, Mo.).
The kinase reaction are conducted in clear-bottom 96-well plate from Thermo Fisher Scientific in a final volume of 24 μL. Inhibitors are first diluted serially in DMSO and added to the plate wells before the addition of other reaction components. The final concentration of DMSO in the assay is 0.5%. The PI3K assays are carried out at room temperature in 20 mM MOPS, pH 6.7, 10 mM MgCl2, 5 mM DTT and CHAPS 0.03%. The reaction mixture is prepared containing 50 µM PIP2, kinase and varying concentration of inhibitors. Reactions are initiated by the addition of ATP containing 2.2 μCi [γ-^33P]ATP to a final concentration of 1000 μM. The final concentration of PI3K isoforms α, β, δ and γ in the assay were 1.3, 9.4, 2.9 and 10.8 nM, respectively. Reactions are incubated for 180 minutes and terminated by the addition of 100 μL of 1 M potassium phosphate pH 8.0, 30 mM EDTA quench buffer. A 100 μL aliquot of the reaction solution are then transferred to 96-well Millipore MultiScreen IP […] PVDF filter plate (The filter plate is prewetted with 200 μL 100% ethanol, distilled water, and 1 M potassium phosphate pH 8.0, respectively). The filter plate is aspirated on a Millipore Manifold under vacuum and washed with 18×200 μL wash buffer containing 1 M potassium phosphate pH 8.0 and 1 mM ATP. After drying by aspiration and blotting, the plate is air dried in an incubator at 37° C. overnight. Packard TopCount adapter (Millipore) is then attached to the plate followed with addition of 120 μL Microscint 20 scintillation cocktail (Perkin Elmer) in each well. After the plate sealing, the radioactivity of the product is determined by scintillation counting on Topcount (Perkin-Elmer). IC50 determination is performed by fitting the curve of percent control activity versus the log of the inhibitor concentration using the GraphPad Prism 3.0 software.

PI3Kδ, sequence (O00329 whole entry): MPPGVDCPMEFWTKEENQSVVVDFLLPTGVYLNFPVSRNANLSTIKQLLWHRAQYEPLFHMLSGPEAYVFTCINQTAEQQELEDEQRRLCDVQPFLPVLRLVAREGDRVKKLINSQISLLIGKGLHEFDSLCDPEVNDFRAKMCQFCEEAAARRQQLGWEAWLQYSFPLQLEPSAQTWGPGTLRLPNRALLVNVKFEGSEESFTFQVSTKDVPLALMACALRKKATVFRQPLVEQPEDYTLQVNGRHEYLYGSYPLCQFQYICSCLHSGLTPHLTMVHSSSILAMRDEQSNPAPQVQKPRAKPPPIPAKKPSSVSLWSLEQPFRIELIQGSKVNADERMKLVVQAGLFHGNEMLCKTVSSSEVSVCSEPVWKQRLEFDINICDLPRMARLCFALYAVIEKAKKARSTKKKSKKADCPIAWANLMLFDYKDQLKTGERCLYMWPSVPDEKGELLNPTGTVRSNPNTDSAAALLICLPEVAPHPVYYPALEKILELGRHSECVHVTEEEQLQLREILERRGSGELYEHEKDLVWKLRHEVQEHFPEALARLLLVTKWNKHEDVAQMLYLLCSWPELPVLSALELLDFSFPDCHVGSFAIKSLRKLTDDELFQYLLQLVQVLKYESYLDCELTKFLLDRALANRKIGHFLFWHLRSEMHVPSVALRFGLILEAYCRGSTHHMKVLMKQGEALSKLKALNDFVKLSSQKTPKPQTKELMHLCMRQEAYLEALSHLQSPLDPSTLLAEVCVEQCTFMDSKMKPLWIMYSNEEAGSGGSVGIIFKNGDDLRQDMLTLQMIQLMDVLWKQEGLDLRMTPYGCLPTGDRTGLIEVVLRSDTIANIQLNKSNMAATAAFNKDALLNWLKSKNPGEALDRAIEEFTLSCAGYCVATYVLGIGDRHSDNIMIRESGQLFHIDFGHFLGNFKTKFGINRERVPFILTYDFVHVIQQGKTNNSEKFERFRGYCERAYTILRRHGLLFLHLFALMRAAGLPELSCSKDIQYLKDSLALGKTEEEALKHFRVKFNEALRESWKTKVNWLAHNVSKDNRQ
PI3Kδ, sequence (P27986 whole entry partner): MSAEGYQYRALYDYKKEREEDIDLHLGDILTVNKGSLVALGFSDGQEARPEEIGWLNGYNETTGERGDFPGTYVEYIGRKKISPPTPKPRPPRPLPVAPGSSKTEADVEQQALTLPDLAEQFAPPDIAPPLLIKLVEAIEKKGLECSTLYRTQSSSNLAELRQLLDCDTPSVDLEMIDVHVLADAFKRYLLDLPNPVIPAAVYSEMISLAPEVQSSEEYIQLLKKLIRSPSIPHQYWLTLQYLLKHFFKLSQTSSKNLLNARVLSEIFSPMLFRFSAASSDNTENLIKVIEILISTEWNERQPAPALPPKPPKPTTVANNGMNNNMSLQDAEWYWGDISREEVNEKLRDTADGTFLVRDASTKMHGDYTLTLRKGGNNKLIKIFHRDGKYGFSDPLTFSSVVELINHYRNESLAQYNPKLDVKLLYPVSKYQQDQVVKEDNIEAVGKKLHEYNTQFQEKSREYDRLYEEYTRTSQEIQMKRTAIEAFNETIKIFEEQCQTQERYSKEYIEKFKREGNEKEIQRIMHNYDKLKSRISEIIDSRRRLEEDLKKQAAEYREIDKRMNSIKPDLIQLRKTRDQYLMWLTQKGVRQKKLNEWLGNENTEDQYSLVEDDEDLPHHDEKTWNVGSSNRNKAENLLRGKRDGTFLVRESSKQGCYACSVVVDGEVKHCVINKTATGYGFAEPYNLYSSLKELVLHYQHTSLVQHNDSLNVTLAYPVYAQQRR

IC50 [nM]	Structure (SMILES)
≤ 100	Cc1nn(C(C)c2cc(Cl)c(F)c3c2OC(C)CN(C2CN(C(=O)OC(C)(C)C)C2)C3)c2ncnc(N)c12 (single isomer, unassigned) [Example 26, tert-Butyl 3-[9-[1-(4-amino-3-methyl-1H-pyrazolo[3,4-d]pyrimidin-1-yl)ethyl]-7-chloro-6-fluoro-2-methyl-2,3-dihydro-1,4-benzoxazepin-4(5H)-yl]azetidine-1-carboxylate]
> 800	CC(=O)N1CC(N2Cc3c(F)c(Cl)cc(C(C)n4nc(C)c5c(N)ncnc54)c3OC(C)C2)C1 (single isomer, unassigned) [Example 31, 1-{1-[4-(1-Acetylazetidin-3-yl)-7-chloro-6-fluoro-2-methyl-2,3,4,5-tetrahydro-1,4-benzoxazepin-9-yl]ethyl}-3-methyl-1H-pyrazolo[3,4-d]pyrimidin-4-amine]
100 to 500	CC(=O)N1CC(N2Cc3c(F)c(Cl)cc(C(C)n4nc(C)c5c(N)ncnc54)c3OC(C)C2)C1 (single isomer, unassigned) [Example 33, 1-{1-[4-(1-Acetylazetidin-3-yl)-7-chloro-6-fluoro-2-methyl-2,3,4,5-tetrahydro-1,4-benzoxazepin-9-yl]ethyl}-3-methyl-1H-pyrazolo[3,4-d]pyrimidin-4-amine]
≤ 100	Cc1nn(C(C)c2cc(Cl)c(F)c3c2OC[C@H](C)N(S(C)(=O)=O)C3)c2ncnc(N)c12 (single isomer, unassigned) [Example 35]
500 to 1000	Cc1nn(C(C)c2cc(Cl)c(F)c3c2OC[C@H](C)N(S(C)(=O)=O)C3)c2ncnc(N)c12 (single isomer, unassigned) [Example 36]
> 800	Cc1nn(C(C)c2cc(Cl)c(F)c3c2OC(C)CN(S(C)(=O)=O)C3)c2ncnc(N)c12 (single isomer, unassigned) [Example 38, 1-{1-[7-Chloro-6-fluoro-2-methyl-4-(methylsulfonyl)-2,3,4,5-tetrahydro-1,4-benzoxazepin-9-yl]ethyl}-3-methyl-1H-pyrazolo[3,4-d]pyrimidin-4-amine]
> 800	Cc1nn(C(C)c2cc(Cl)c(F)c3c2OC(C)CN(S(C)(=O)=O)C3)c2ncnc(N)c12 (single isomer, unassigned) [Example 39, 1-{1-[7-Chloro-6-fluoro-2-methyl-4-(methylsulfonyl)-2,3,4,5-tetrahydro-1,4-benzoxazepin-9-yl]ethyl}-3-methyl-1H-pyrazolo[3,4-d]pyrimidin-4-amine]
≤ 100	Cc1nn(C(C)c2cc(Cl)c(F)c3c2O[C@@H](C)CN(C2CC(C(N)=O)C2)C3)c2ncnc(N)c12 (single isomer, unassigned) [Example 44]
100 to 500	CC(=O)N1CC(N2Cc3c(C#N)c(Cl)cc(C(C)n4nc(C)c5c(N)ncnc54)c3OC(C)C2)C1 (single isomer, unassigned) [Example 48, 4-(1-Acetylazetidin-3-yl)-9-[1-(4-amino-3-methyl-1H-pyrazolo[3,4-d]pyrimidin-1-yl)ethyl]-7-chloro-2-methyl-2,3,4,5-tetrahydro-1,4-benzoxazepine-6-carbonitrile]
≤ 100	Cc1nn(C(C)c2cc(Cl)c(C#N)c3c2OC(C)CN(C2CN(CC(N)=O)C2)C3)c2ncnc(N)c12 (single isomer, unassigned) [Example 50, 2-{3-[9-[1-(4-Amino-3-methyl-1H-pyrazolo[3,4-d]pyrimidin-1-yl)ethyl]-7-chloro-6-cyano-2-methyl-2,3-dihydro-1,4-benzoxazepin-4(5H)-yl]azetidin-1-yl}acetamide]
≤ 100	Cc1nn(C(C)c2cc(Cl)c(C#N)c3c2OC(C)CN(C2CN(CC(N)=O)C2)C3)c2ncnc(N)c12 (single isomer, unassigned) [Example 51, 2-{3-[9-[1-(4-Amino-3-methyl-1H-pyrazolo[3,4-d]pyrimidin-1-yl)ethyl]-7-chloro-6-cyano-2-methyl-2,3-dihydro-1,4-benzoxazepin-4(5H)-yl]azetidin-1-yl}acetamide]
≤ 100	Cc1nn(C(C)c2cc(Cl)c(C#N)c3c2OC(C)CN(C2CN(CC(N)=O)C2)C3)c2ncnc(N)c12 (single isomer, unassigned) [Example 53, 2-{3-[9-[1-(4-Amino-3-methyl-1H-pyrazolo[3,4-d]pyrimidin-1-yl)ethyl]-7-chloro-6-cyano-2-methyl-2,3-dihydro-1,4-benzoxazepin-4(5H)-yl]azetidin-1-yl}acetamide]
≤ 100	Cc1nn(C(C)c2cc(Cl)c(C#N)c3c2OC(C)CN(C2CN(CC(C)(C)O)C2)C3)c2ncnc(N)c12 (single isomer, unassigned) [Example 54, 9-[1-(4-Amino-3-methyl-1H-pyrazolo[3,4-d]pyrimidin-1-yl)ethyl]-7-chloro-4-[1-(2-hydroxy-2-methylpropyl)azetidin-3-yl]-2-methyl-2,3,4,5-tetrahydro-1,4-benzoxazepine-6-carbonitrile]
≤ 100	Cc1nn(C(C)c2cc(Cl)c(C#N)c3c2OC(C)CN(C2CN(CC(C)(C)O)C2)C3)c2ncnc(N)c12 (single isomer, unassigned) [Example 55, 9-[1-(4-Amino-3-methyl-1H-pyrazolo[3,4-d]pyrimidin-1-yl)ethyl]-7-chloro-4-[1-(2-hydroxy-2-methylpropyl)azetidin-3-yl]-2-methyl-2,3,4,5-tetrahydro-1,4-benzoxazepine-6-carbonitrile]
≤ 100	Cc1nn(C(C)c2cc(Cl)c(C#N)c3c2OC(C)CN(Cc2cccnc2)C3)c2ncnc(N)c12 (single isomer, unassigned) [Example 59, 9-[1-(4-Amino-3-methyl-1H-pyrazolo[3,4-d]pyrimidin-1-yl)ethyl]-7-chloro-2-methyl-4-(pyridin-3-ylmethyl)-2,3,4,5-tetrahydro-1,4-benzoxazepine-6-carbonitrile]
≤ 100	Cc1nn(C(C)c2cc(Cl)c(C#N)c3c2OC(C)CN(Cc2cccnc2)C3)c2ncnc(N)c12 (single isomer, unassigned) [Example 60, 9-[1-(4-Amino-3-methyl-1H-pyrazolo[3,4-d]pyrimidin-1-yl)ethyl]-7-chloro-2-methyl-4-(pyridin-3-ylmethyl)-2,3,4,5-tetrahydro-1,4-benzoxazepine-6-carbonitrile]
> 800	Cc1nn(C(C)c2cc(Cl)c(C#N)c3c2OC(C)CN(CCO)C3)c2ncnc(N)c12 (single isomer, unassigned) [Example 61, 9-[1-(4-Amino-3-methyl-1H-pyrazolo[3,4-d]pyrimidin-1-yl)ethyl]-7-chloro-4-(2-hydroxyethyl)-2-methyl-2,3,4,5-tetrahydro-1,4-benzoxazepine-6-carbonitrile]
100 to 500	Cc1nn(C(C)c2cc(Cl)c(C#N)c3c2OC(C)CN(CCO)C3)c2ncnc(N)c12 (single isomer, unassigned) [Example 64, 9-[1-(4-Amino-3-methyl-1H-pyrazolo[3,4-d]pyrimidin-1-yl)ethyl]-7-chloro-4-(2-hydroxyethyl)-2-methyl-2,3,4,5-tetrahydro-1,4-benzoxazepine-6-carbonitrile]
≤ 100	Cc1nn(C(C)c2cc(Cl)c(C#N)c3c2OC(C)CN(CC(C)(C)O)C3)c2ncnc(N)c12 (single isomer, unassigned) [Example 65, 9-[1-(4-Amino-3-methyl-1H-pyrazolo[3,4-d]pyrimidin-1-yl)ethyl]-7-chloro-4-(2-hydroxy-2-methylpropyl)-2-methyl-2,3,4,5-tetrahydro-1,4-benzoxazepine-6-carbonitrile]
≤ 100	Cc1nn(C(C)c2cc(Cl)c(C#N)c3c2OC(C)CN(CC(C)(C)O)C3)c2ncnc(N)c12 (single isomer, unassigned) [Example 66, 9-[1-(4-Amino-3-methyl-1H-pyrazolo[3,4-d]pyrimidin-1-yl)ethyl]-7-chloro-4-(2-hydroxy-2-methylpropyl)-2-methyl-2,3,4,5-tetrahydro-1,4-benzoxazepine-6-carbonitrile]
≤ 100	CC(=O)NC1CC(N2Cc3c(C#N)c(Cl)cc(C(C)n4nc(C)c5c(N)ncnc54)c3OC(C)C2)C1 (single isomer, unassigned) [Example 67, N-{3-[9-[1-(4-Amino-3-methyl-1H-pyrazolo[3,4-d]pyrimidin-1-yl)ethyl]-7-chloro-6-cyano-2-methyl-2,3-dihydro-1,4-benzoxazepin-4(5H)-yl]cyclobutyl}acetamide]
≤ 100	CC(=O)NC1CC(N2Cc3c(C#N)c(Cl)cc(C(C)n4nc(C)c5c(N)ncnc54)c3OC(C)C2)C1 (single isomer, unassigned) [Example 68, N-{3-[9-[1-(4-Amino-3-methyl-1H-pyrazolo[3,4-d]pyrimidin-1-yl)ethyl]-7-chloro-6-cyano-2-methyl-2,3-dihydro-1,4-benzoxazepin-4(5H)-yl]cyclobutyl}acetamide]
